In PubChem BioAssay (NCI) one finds GI50 and TGI data, which are given here for 16 molecules.

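How tested: cells in 96-well plates exposed to compound for 48 hours at five concentrations. At the GI50, growth is halved. TGI: concentration producing complete growth inhibition.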

Common to all, as to assay: NCI-60 cell line screen, 48 h
Test [1] has as its system IGROV1 ovarian.
The test system of test [2] is T-47D breast.
In test [3] the test system is SR leukemia.
Test [4] concerns SNB-19 CNS.
Test [5] deals with SF-268 CNS.
Test [6] has as its system SN12C renal.
The test system of test [7] is LOX IMVI melanoma.
Test [8] relates to MDA-MB-435.
Test [9] relates to HS 578T breast.
For test [10], the system named is UACC-62 melanoma.

As to `N#CCCN(CCCN(CCCN(C(=O)Nc1ccccc1)c1ccccc1)C(=O)Nc1ccccc1)C(=O)Nc1ccccc1`, the GI50 in [1] was 31.7 µM; in [2], over 100 µM; in test [5] it was 74.8 µM; in [6] it was over 100 µM; in [8] it was 34.9 µM; in test [10] it was over 100 µM. The TGI in test [1] is over 100 µM; in test [2] it was over 100 µM; in test [3], over 8.75 µM; in [4], over 8.75 µM; in [5] it was over 100 µM; in [6], over 100 µM. Also, the TGI in [7], in test [8], in test [9] and in test [10] was over 100 µM throughout.
On to `C[C@]12CCc3sc(NCCc4ccccc4)nc3C1=CC[C@@H]1[C@@H]2CC[C@]2(C)C(=O)CC[C@@H]12`, for which the GI50 in test [1] was 2.6 µM; in [2], 3.05 µM; in [3] it was 3.06 µM; in test [4] it was 97.5 µM; in test [5] it was 4.62 µM; in test [6] it was 2.89 µM. In addition, the GI50 in test [7] is 1.7 µM; in test [8] it was 3.01 µM; in test [9], 2.85 µM; in [10] it was 2.67 µM. Besides, the TGI in [1] is 6.18 µM; in test [2] it was 25.2 µM; in [3], over 100 µM; in test [4] it was over 100 µM; in [5] it was over 100 µM; in test [6] it was over 100 µM. In addition, the TGI is 3.17 µM in test [7], over 100 µM in [8], over 100 µM in test [9] and 10.6 µM in [10].
As to `O=C(Nc1cccc(-n2cc(-c3ccncc3)c(-c3cc(O)cc(Cl)c3)n2)c1)Nc1ccc(Cl)c(C(F)(F)F)c1`, the GI50 is 3.81 µM in test [1]; 2.44 µM in test [2]; 2.01 µM in test [3]; 3.7 µM in test [4]; 3.1 µM in test [5]; 3.45 µM in test [6]. Besides, the GI50 is 1.97 µM in [7], 1.78 µM in test [8], 3.29 µM in test [9] and 2.08 µM in [10]. Besides, the TGI in test [1] is 12.6 µM; in test [2], 9.27 µM; in [3], 5.18 µM; in [4], 16.6 µM; in test [5], 16 µM; in test [6], 17.2 µM. Further, the TGI in test [7] is 4.36 µM; in test [8], 3.89 µM; in test [9] it was over 100 µM; in [10] it was 4.38 µM.
As for `O=C(Nc1ccncc1)C(=O)c1cn(Cc2ccc(Cl)cc2)c2ccccc12`, the GI50 in test [1] was 0.141 µM; in test [2], 0.0436 µM; in test [3], 0.0298 µM; in test [4] it was 0.0622 µM; in test [5] it was 0.0775 µM; in test [6] it was 0.0725 µM. In addition, the GI50 in test [7] was 0.0574 µM; in test [8], under 0.01 µM; in [9], 0.0339 µM; in [10], 0.0514 µM. Further, the TGI in [1], in test [2], in [3], in [4], in test [5] and in test [6] was over 100 µM each time. Further, the TGI was over 100 µM in test [7], 0.044 µM in test [8], over 100 µM in [9] and over 100 µM in test [10].
`CC1OC(n2c3ccccc3c3c4c(c5c6ccccc6[nH]c5c32)C(=O)N(CCN[C@@H]2CCC[C@H]2N)C4=O)CC(O)C1O` (stereo not given in full): the GI50 is 1.87 µM in test [1]; 1.04 µM in [2]; 0.439 µM in test [3]; 1.39 µM in test [4]; 1.48 µM in test [5]; 1.48 µM in test [6]. In addition, the GI50 in test [7] is 0.835 µM; in test [8], 1.44 µM; in [9], 1.63 µM; in test [10], 0.872 µM. Also, the TGI in test [1] came to 9.68 µM; in test [2], 6.46 µM; in test [3] it was 3.94 µM; in test [4], 6.58 µM; in test [5], 8.06 µM; in test [6], 6.5 µM. In addition, the TGI was found to be 2.68 µM in test [7], 6.46 µM in [8], 9.73 µM in [9] and 2.8 µM in test [10].
Turning to `O=C(N/C(=C/c1ccc(Cl)cc1Cl)c1nc2ccccc2s1)c1ccccc1`, the TGI in [1] was 26.2 µM; in [2] it was 43.3 µM; in [3] it was over 100 µM; in test [4], 41.1 µM; in test [5], 34 µM; in test [6], 23 µM. Besides, the TGI was 18.7 µM in [7], 30.2 µM in [8], 44.3 µM in test [9] and 30.2 µM in [10].
As for `COc1cccc2c1ccc1nc3cccc(C(=O)N[C@H](C)CN(C)C)c3nc12`, the GI50 is 0.0549 µM in [1]; 0.159 µM in [2]; 0.0315 µM in test [3]; 0.0907 µM in [4]; 0.0654 µM in [5]; 0.0879 µM in [6]. The GI50 in test [7] is 0.0474 µM; in test [8], 0.0976 µM; in test [9], 0.166 µM; in test [10], 0.0447 µM. Besides, the TGI in [1] was found to be 11.9 µM; in [2], 0.974 µM; in test [4] it was 10.9 µM; in test [5], 0.916 µM; in [6], 11.7 µM; in test [7] it was 0.55 µM. Further, the TGI stood at 0.986 µM in test [8], 3.42 µM in test [9] and 0.198 µM in test [10].
`COc1ccc(-c2nc(-c3ccccc3)c(-c3ccccc3)[nH]2)cc1OC1CCCC1`: the GI50 is over 100 µM in [1]; 34.9 µM in [2]; 15 µM in [3]; over 100 µM in test [4]; over 100 µM in [5]; over 100 µM in [6]. The GI50 in test [7] is 34.3 µM; in [8], over 100 µM; in test [9] it was over 100 µM; in test [10], over 100 µM. For the same molecule, the TGI in [1], in test [2], in test [3], in test [4], in test [5] and in test [6] was over 100 µM each time. For the same molecule, the TGI in test [7], in [8], in [9] and in test [10] was over 100 µM each time.
For `O=S(=O)(Nc1ccc(Br)c(Cl)c1)c1ccc(-c2cnc(C3CC3)o2)cc1`, the GI50 in test [1] is 0.577 µM; in [2], 0.437 µM; in test [3], 0.38 µM; in test [4], 0.517 µM; in test [5], 1.56 µM; in test [6] it was 1.27 µM. For the same molecule, the GI50 in test [7] was 0.565 µM; in [8], 0.177 µM; in test [9], 0.351 µM; in test [10], 0.372 µM. The TGI was 14.8 µM in test [1]; 21.1 µM in [2]; over 49.4 µM in test [3]; 16.2 µM in [4]; 23.5 µM in test [5]; 16 µM in test [6]. Further, the TGI in [7] was 16.2 µM; in test [8] it was 2.45 µM; in test [9], 18.3 µM; in test [10], 13.6 µM.
On to `CC1CC2OC(=O)C(C)C2CC2(C)C(OC3OC(CO)C(O)C(O)C3O)OCCC12` (stereo not given), for which the TGI in [1], in test [2], in test [3], in test [4], in test [5] and in test [6] was over 100 µM each time. The TGI in [7] is over 100 µM; in test [8] it was over 100 µM; in test [9], over 100 µM; in test [10], 30.6 µM.
Turning to `CC1OC(OC2C[C@](O)(C(=O)CF)Cc3c(O)c4c(c(O)c32)C(=O)c2ccccc2C4=O)CC(N)C1O` (stereo not given in full), the TGI was determined as 2.4 µM in test [1]; 0.151 µM in test [2]; 0.0708 µM in [3]; 5.23 µM in test [4]; 1.37 µM in test [5]; 0.338 µM in [6]. The TGI was 0.276 µM in test [7], 0.321 µM in test [8], 0.117 µM in test [9] and 0.117 µM in [10].
Turning to `O=C1c2cccc(NCCN=Cc3cc([N+](=O)[O-])ccc3O)c2C(=O)c2c(NCCN=Cc3cc([N+](=O)[O-])ccc3O)cccc21`, the GI50 in test [1] was 2.62 µM; in test [2], 9.38 µM; in test [3], 1.49 µM; in [4] it was 6.95 µM; in [5], 2.42 µM; in [6], 2.45 µM. Besides, the GI50 is 2.62 µM in [7], 4.28 µM in test [8], 2.74 µM in [9] and 33 µM in test [10]. Also, the TGI in [1], in test [2], in [3], in [4], in test [5] and in [6] was over 100 µM each time. Moreover, the TGI in test [7] is 29.1 µM; in [8], over 100 µM; in test [9], 29.4 µM; in test [10], over 100 µM.
Take `Cc1ccc(-c2nc(C#N)c(S(=O)(=O)n3nc(C)cc3N)o2)cc1`: the GI50 in test [1] is 2.99 µM; in test [2] it was 2.27 µM; in [3] it was 2.06 µM; in test [4], 14.1 µM; in test [5], 16.4 µM; in [6], 3.65 µM. For the same molecule, the GI50 in [7] was 1.86 µM; in [8], 10.5 µM; in [9] it was 21.3 µM; in test [10], 6.32 µM. Also, the TGI in test [1] was found to be 8.28 µM; in test [2], 5.76 µM; in test [3] it was 6.91 µM; in test [4], 28.4 µM; in test [5], 36.2 µM; in test [6] it was 13.9 µM. Also, the TGI in test [7] amounted to 3.59 µM; in test [8], 22.7 µM; in test [9], 58.1 µM; in test [10], 19.8 µM.
For the molecule `CN[C@H](C#Cc1c(F)ccc2c1/C(=C/c1[nH]ccc1OC)C(=O)N2)CO`, the GI50 is 0.682 µM in test [1]; 2.27 µM in test [2]; 0.109 µM in test [3]; 1.06 µM in test [4]; 0.509 µM in test [5]; 0.2 µM in test [6]. Besides, the GI50 in test [7] is 0.344 µM; in test [8], 0.354 µM; in test [9], 0.212 µM; in test [10], 0.671 µM. In addition, the TGI in test [1] worked out at 3.32 µM; in [2], 13.6 µM; in test [3], 1.91 µM; in test [4], 21 µM; in [5], 2.21 µM; in test [6], 25 µM. Further, the TGI turned out to be 2.54 µM in test [7], 2.82 µM in test [8], 12.9 µM in test [9] and 4.6 µM in test [10].
On to `NC(=O)c1ccccc1Nc1ccc2nnc(-c3ccncc3)n2n1`, for which the GI50 is 2.23 µM in [1]; 4.69 µM in [2]; 2.83 µM in test [3]; 14.4 µM in test [4]; 5.56 µM in [5]; 3.69 µM in test [6]. In addition, the GI50 in [7] was 1.87 µM; in [8], 7.1 µM; in test [9], 18.1 µM; in [10], 7.15 µM. For the same molecule, the TGI in [1] was found to be 5.41 µM; in test [2], 20.3 µM; in test [3], 14.6 µM; in test [4], 31.8 µM; in test [5] it was 21 µM; in test [6], 18.1 µM. Besides, the TGI in test [7] stood at 3.75 µM; in [8] it was 26.9 µM; in test [9], 58.3 µM; in test [10] it was 22.2 µM.
Consider `O=C1C(N2CC2)=C(N2CC2)C(=O)C(N2CC2)=C1N1CC1`, for which the GI50 is 0.312 µM in test [1]; 0.659 µM in [2]; 0.0345 µM in [3]; 0.14 µM in test [4]; 0.265 µM in test [5]; under 0.0228 µM in test [6]. For the same molecule, the GI50 in test [7] is under 0.0209 µM; in test [8], 0.706 µM; in test [9], 1.28 µM; in test [10], 0.101 µM. Also, the TGI in test [1] is 2.38 µM; in test [2] it was 23.8 µM; in test [3] it was over 100 µM; in [4], 4.32 µM; in test [5] it was 5.31 µM; in test [6] it was 1.45 µM. The TGI was 0.307 µM in test [7], 2.3 µM in [8], 6.21 µM in test [9] and 1.13 µM in test [10].
